Reference: US11351095B2, “Stabilized emulsions with acidic agents” (Avon Products, Inc., priority 2018, dated 2022)

Experiment: First normal stress difference of glycerin phases (AR-G2 rheometer)
Format: physicochemical
Experimental: The first normal stress difference of several glycerin phases (“Phase”) was measured prior to emulsification. A TA Instruments AR-G2 Rheometer was used to perform viscosity measurements for each of the phases A-E and a 100% glycerin phase using a 2 degree cone and plate geometry and a 52 micron gap. Measurements were taken at a shear stress of 100 Pa and 25° C. (77° F.).

## OCC(O)CO [Glycerin (100%), Glycerin]
Glycerin phase prior to emulsification, shear stress of 100 Pa and 25° C., 2 degree cone and plate, 52 micron gap
  First Normal Stress Difference (N1 = 2 × Je × η^2 × γ^2, Pa): 0 Pa
Inferred from first normal stress difference
  extensional viscosity: no extensional viscosity
